According to patent publication US10584128B2, “Bicyclic dihydropyrimidine-carboxamide derivatives as Rho-Kinase inhibitors” (CHIESI FARMACEUTICI S.p.A., priority 2016, dated 2020):

Assays:
[1] = target: Rho kinase 1 (Homo sapiens, UniProt Q13464); experiment: In vitro Rho kinase inhibitory activity assay (ADP-Glo kit, Myelin Basic Protein substrate); assay type: biochemical; conditions: 10 μM ATP, 25° C., read-out: ROCK1 inhibitory activity (Ki, range of activity)
Method: (§1) The effectiveness of compounds of the present invention to inhibit Rho kinase activity can be determined in a 10 μl assay containing 40 mM Tris pH7.5, 20 mM MgCl2 0.1 mg/ml BSA, 50 μM DTT and 2.5 μM peptide substrate (Myelin Basic Protein) using an ADP-Glo kit (Promega). Compounds were dissolved in DMSO such that the final concentration of DMSO was 1% in the assay. All reactions/incubations are performed at 25° C. Compound (2 ul) and either Rho kinase 1 or 2 (4 μl) were mixed and incubated for 30 mins. Reactions were initiated by addition of ATP (4 μl) such that the final concentration of ATP in the assay was 10 μM. After a 1 hour incubation 10 μl of ADP-Glo Reagent was added and after a further 45 minute incubation 20 ul of Kinase Detection Buffer was added and the mixture incubated for a further 30 minutes. The luminescent signal was measured on a luminometer. […] Compounds were tested in dose-response format and the inhibition of kinase activity was calculated at each concentration of compound. To determine the IC50 (concentration of compound required to inhibit 50% of the enzyme activity) data were fit to a plot of % inhibition vs Log10 compound concentration using a sigmoidal fit with a variable slope and fixing the maximum to 100% and the minimum to 0%. To determine the Ki values the Cheng-Prusoff equation was utilized (Ki=IC50/(1+[S]/Km).

[2] = target: Rho kinase 2 (Homo sapiens, UniProt O75116); experiment: as above; assay type: biochemical; conditions: 10 μM ATP, 25° C., read-out: ROCK2 inhibitory activity (Ki, range of activity)
Method: as §1

Sequence of Rho kinase 1 (Q13464 whole entry): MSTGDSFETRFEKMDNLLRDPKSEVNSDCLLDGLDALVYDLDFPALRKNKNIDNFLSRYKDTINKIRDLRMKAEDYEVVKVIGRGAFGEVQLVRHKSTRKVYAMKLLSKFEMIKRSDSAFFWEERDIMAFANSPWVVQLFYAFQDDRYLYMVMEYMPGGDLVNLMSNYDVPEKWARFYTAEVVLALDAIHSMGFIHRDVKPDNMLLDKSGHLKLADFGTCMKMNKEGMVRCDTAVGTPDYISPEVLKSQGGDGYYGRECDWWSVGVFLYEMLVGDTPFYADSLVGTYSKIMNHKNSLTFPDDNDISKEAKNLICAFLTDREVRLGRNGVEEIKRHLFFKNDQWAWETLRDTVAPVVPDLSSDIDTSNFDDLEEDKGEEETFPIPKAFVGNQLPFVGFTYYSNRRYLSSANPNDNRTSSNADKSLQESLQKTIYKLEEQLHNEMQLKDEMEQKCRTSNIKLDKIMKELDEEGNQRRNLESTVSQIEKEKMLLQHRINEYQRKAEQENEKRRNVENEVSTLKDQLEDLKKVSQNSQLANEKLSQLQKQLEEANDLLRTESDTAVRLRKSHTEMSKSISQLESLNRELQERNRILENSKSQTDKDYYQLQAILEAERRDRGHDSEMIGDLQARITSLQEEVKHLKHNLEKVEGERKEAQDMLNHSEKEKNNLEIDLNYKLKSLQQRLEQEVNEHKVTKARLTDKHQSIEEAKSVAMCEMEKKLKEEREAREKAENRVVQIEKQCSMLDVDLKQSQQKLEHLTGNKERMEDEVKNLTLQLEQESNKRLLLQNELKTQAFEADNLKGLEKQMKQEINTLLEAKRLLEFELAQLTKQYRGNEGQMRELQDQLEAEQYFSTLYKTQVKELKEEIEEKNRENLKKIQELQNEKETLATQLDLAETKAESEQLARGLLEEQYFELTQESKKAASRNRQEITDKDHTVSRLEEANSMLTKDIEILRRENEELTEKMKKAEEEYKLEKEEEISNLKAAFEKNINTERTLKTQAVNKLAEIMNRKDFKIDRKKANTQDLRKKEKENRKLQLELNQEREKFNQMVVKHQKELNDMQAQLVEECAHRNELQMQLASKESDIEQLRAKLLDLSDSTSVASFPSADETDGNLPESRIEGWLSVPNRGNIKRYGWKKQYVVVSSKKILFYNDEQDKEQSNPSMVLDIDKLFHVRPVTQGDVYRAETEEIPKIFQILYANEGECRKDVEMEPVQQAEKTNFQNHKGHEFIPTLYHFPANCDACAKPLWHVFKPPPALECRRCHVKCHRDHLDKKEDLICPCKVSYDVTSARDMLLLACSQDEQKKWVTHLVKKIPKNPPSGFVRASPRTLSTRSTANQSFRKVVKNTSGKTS
Sequence of Rho kinase 2 (O75116 whole entry): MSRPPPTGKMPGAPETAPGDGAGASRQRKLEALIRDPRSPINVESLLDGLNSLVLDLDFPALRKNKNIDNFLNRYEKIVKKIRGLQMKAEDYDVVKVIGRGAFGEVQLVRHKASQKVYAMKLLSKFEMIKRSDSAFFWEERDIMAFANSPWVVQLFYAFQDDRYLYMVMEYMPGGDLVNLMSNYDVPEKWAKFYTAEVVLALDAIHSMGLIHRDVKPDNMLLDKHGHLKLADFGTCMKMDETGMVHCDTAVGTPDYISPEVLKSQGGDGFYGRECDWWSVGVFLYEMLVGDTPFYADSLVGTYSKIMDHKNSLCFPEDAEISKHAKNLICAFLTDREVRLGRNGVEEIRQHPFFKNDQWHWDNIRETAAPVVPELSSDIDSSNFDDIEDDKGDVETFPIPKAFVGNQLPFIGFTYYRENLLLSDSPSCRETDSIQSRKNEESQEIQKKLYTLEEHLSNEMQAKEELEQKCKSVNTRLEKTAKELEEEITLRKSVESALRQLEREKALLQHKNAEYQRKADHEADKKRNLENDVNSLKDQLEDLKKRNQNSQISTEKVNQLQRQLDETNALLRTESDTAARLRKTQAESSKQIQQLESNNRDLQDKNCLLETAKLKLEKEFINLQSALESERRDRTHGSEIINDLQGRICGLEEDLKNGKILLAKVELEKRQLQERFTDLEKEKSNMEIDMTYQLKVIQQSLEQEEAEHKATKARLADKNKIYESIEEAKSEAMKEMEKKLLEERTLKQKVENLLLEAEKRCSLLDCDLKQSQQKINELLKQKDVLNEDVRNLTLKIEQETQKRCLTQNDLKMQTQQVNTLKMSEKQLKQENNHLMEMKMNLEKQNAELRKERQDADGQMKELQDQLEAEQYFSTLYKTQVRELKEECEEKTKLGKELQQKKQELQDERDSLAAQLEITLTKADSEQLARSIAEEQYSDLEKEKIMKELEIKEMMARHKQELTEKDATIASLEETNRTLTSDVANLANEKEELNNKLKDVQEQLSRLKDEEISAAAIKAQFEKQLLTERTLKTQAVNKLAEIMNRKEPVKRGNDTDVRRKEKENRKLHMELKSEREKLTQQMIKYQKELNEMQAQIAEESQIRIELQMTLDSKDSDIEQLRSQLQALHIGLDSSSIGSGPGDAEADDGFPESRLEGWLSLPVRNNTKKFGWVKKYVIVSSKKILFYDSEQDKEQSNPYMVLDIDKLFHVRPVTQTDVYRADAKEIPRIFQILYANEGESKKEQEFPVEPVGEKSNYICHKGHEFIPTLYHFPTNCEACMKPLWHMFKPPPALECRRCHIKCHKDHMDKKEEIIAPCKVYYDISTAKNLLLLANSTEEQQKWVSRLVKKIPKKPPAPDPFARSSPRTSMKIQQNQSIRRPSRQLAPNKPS

SMILES | Ki [1] [nM] | Ki [2] [nM]
CC1=C(C(=O)Nc2ccc3cnccc3c2)C(c2ccc(C(F)(F)F)c(F)c2)n2nc(CN(C)C)cc2N1 (single isomer, unassigned) [Example 94B, 2-((dimethylamino)methyl)-7-(3-fluoro-4-(trifluoromethyl)phenyl)-N-(isoquinolin-6-yl)-5-methyl-4,7-dihydropyrazolo[1,5-a]pyrimidine-6-carboxamide] | < 50 | < 50
CC1=C(C(=O)Nc2ccc3cnccc3c2)C(c2ccc(C(F)(F)F)c(F)c2)n2nc(CN3CCN(C)CC3)cc2N1 (single isomer, unassigned) [Example 96A, 7-(3-fluoro-4-(trifluoromethyl)phenyl)-N-(isoquinolin-6-yl)-5-methyl-2-((4-methylpiperazin-1-yl)methyl)-4,7-dihydropyrazolo[1,5-a]pyrimidine-6-carboxamide] | 50 to 500 | 50 to 500
CC1=C(C(=O)Nc2ccc3cnccc3c2)C(c2ccc(C(F)(F)F)c(F)c2)n2nc(CN3CCN(C)CC3)cc2N1 (single isomer, unassigned) [Example 96B, 7-(3-fluoro-4-(trifluoromethyl)phenyl)-N-(isoquinolin-6-yl)-5-methyl-2-((4-methylpiperazin-1-yl)methyl)-4,7-dihydropyrazolo[1,5-a]pyrimidine-6-carboxamide] | < 50 | < 50
CC1=C(C(=O)Nc2ccc3cnccc3c2)C(c2ccc(C(F)(F)F)c(F)c2)n2nc(CN3CCCCC3)cc2N1 (single isomer, unassigned) [Example 97A, 7-(3-fluoro-4-(trifluoromethyl)phenyl)-N-(isoquinolin-6-yl)-5-methyl-2-(piperidin-1-ylmethyl)-4,7-dihydropyrazolo[1,5-a]pyrimidine-6-carboxamide] | 50 to 500 | 50 to 500
CC1=C(C(=O)Nc2ccc3cnccc3c2)C(c2ccc(C(F)(F)F)c(F)c2)n2nc(CN3CCCCC3)cc2N1 (single isomer, unassigned) [Example 97B, 7-(3-fluoro-4-(trifluoromethyl)phenyl)-N-(isoquinolin-6-yl)-5-methyl-2-(piperidin-1-ylmethyl)-4,7-dihydropyrazolo[1,5-a]pyrimidine-6-carboxamide] | < 50 | < 50
CC1=C(C(=O)Nc2ccc3cnccc3c2)C(c2ccc(C(F)(F)F)c(F)c2)n2nc(CN(C)CC3CCN(C)CC3)cc2N1 (single isomer, unassigned) [Example 104A, 7-(3-fluoro-4-(trifluoromethyl)phenyl)-N-(isoquinolin-6-yl)-5-methyl-2-((methyl((1-methylpiperidin-4-yl)methyl)amino)methyl)-4,7-dihydropyrazolo[1,5-a]pyrimidine-6-carboxamide] | < 50 | < 50
CC1=C(C(=O)Nc2ccc3cnccc3c2)C(c2ccc(C(F)(F)F)c(F)c2)n2nc(CN(C)CC3CCN(C)CC3)cc2N1 (single isomer, unassigned) [Example 104B, 7-(3-fluoro-4-(trifluoromethyl)phenyl)-N-(isoquinolin-6-yl)-5-methyl-2-((methyl((1-methylpiperidin-4-yl)methyl)amino)methyl)-4,7-dihydropyrazolo[1,5-a]pyrimidine-6-carboxamide] | 50 to 500 | < 50
CC1=C(C(=O)Nc2ccc3cnccc3c2)C(c2ccc(C)c(F)c2)n2nc(CN(C)C)cc2N1 (single isomer, unassigned) [Example 110A, 2-((dimethylamino)methyl)-7-(3-fluoro-4-methylphenyl)-N-(isoquinolin-6-yl)-5-methyl-4,7-dihydropyrazolo[1,5-a]pyrimidine-6-carboxamide] | 50 to 500 | 50 to 500

The next lines start with the values.

Ki [1] [nM] | Ki [2] [nM] | SMILES
< 50 | < 50 | CC1=C(C(=O)Nc2ccc3cnccc3c2)C(c2ccc(C)c(F)c2)n2nc(CN(C)C)cc2N1 (single isomer, unassigned) [Example 110B, 2-((dimethylamino)methyl)-7-(3-fluoro-4-methylphenyl)-N-(isoquinolin-6-yl)-5-methyl-4,7-dihydropyrazolo[1,5-a]pyrimidine-6-carboxamide]
< 50 | < 50 | CC1=C(C(=O)Nc2ccc3cnccc3c2)C(c2ccc(C)c(F)c2F)n2nc(CN(C)C)cc2N1 (single isomer, unassigned) [Example 121b, 7-(2,3-difluoro-4-methylphenyl)-2-((dimethylamino)methyl)-N-(isoquinolin-6-yl)-5-methyl-4,7-dihydropyrazolo[1,5-a]pyrimidine-6-carboxamide]
> 500 | > 500 | CC1=C(C(=O)Nc2ccc3cnccc3c2)C(c2ccc(C(F)(F)F)c(F)c2F)n2nc(CN(C)C)cc2N1 (single isomer, unassigned) [Example 122a, 7-(2,3-difluoro-4-(trifluoromethyl)phenyl)-2-((dimethylamino)methyl)-N-(isoquinolin-6-yl)-5-methyl-4,7-dihydropyrazolo[1,5-a]pyrimidine-6-carboxamide]
< 50 | < 50 | CC1=C(C(=O)Nc2ccc3cnccc3c2)C(c2ccc(C(F)(F)F)c(F)c2F)n2nc(CN(C)C)cc2N1 (single isomer, unassigned) [Example 122b, 7-(2,3-difluoro-4-(trifluoromethyl)phenyl)-2-((dimethylamino)methyl)-N-(isoquinolin-6-yl)-5-methyl-4,7-dihydropyrazolo[1,5-a]pyrimidine-6-carboxamide]
> 500 | > 500 | CC1=C(C(=O)Nc2ccc3cnccc3c2)C(C2Cc3ccccc3C2)n2nc(CN(C)C)cc2N1 (single isomer, unassigned) [Example 124a, 7-(2,3-dihydro-1H-inden-2-yl)-2-((dimethylamino)methyl)-N-(isoquinolin-6-yl)-5-methyl-4,7-dihydropyrazolo[1,5-a]pyrimidine-6-carboxamide]
< 50 | < 50 | CC1=C(C(=O)Nc2ccc3cnccc3c2)C(C2Cc3ccccc3C2)n2nc(CN(C)C)cc2N1 (single isomer, unassigned) [Example 124b, 7-(2,3-dihydro-1H-inden-2-yl)-2-((dimethylamino)methyl)-N-(isoquinolin-6-yl)-5-methyl-4,7-dihydropyrazolo[1,5-a]pyrimidine-6-carboxamide]
< 50 | < 50 | CC1=C(C(=O)Nc2ccc3cnccc3c2)C(c2ccc(C(F)(F)F)c(F)c2)n2nc(C(=O)NCCN3CCCCC3)nc2N1 (single isomer, unassigned) [Example 129a, 7-(3-fluoro-4-(trifluoromethyl)phenyl)-N6-(isoquinolin-6-yl)-5-methyl-N2-(2-(piperidin-1-yl)ethyl)-4,7-dihydro-[1,2,4]triazolo[1,5-a]pyrimidine-2,6-dicarboxamide]
> 500 | > 500 | CC1=C(C(=O)Nc2ccc3cnccc3c2)C(c2ccc(C(F)(F)F)c(F)c2)n2nc(NC(=O)c3ccc(CN(C)C)cc3)cc2N1 (single isomer, unassigned) [Example 137A, 2-(4-((Dimethylamino)methyl)benzamido)-7-(3-fluoro-4-(trifluoromethyl)-phenyl)-N-(isoquinolin-6-yl)-5-methyl-4,7-dihydropyrazolo[1,5-a]pyrimidine-6-carboxamide]
